# Results as given in patent US20240299336A1, “SHELF-STABLE FORMULATIONS OF BENZOYL PEROXIDE AND METHODS OF PRODUCING SAME” (BLUE HILL TECHNOLOGIES LLC, priority 2022, published 2024).
# Assays:
# Assay type in all cases: physicochemical
# [1] = Benzene levels formed by crystalline benzoyl peroxide incubated at 50° C.; settings: 50° C. for up to 12 days
# Procedure: (§1) The method USP <467> Residual Solvents Procedure A was modified from flame ionization detection (FID) to mass spectrometry (MS) detection for benzene in benzoyl peroxide products. The gas chromatography (GC) methods were also modified to allow shorter run time and the method was validated for addition of up to 500 mg benzoyl peroxide product or 200 ml glycerol. Identification of benzene was based on the retention time matching to certified reference standards and mass spectral m/z matching to benzene.
# [2] = Effect of antioxidants on benzene levels in 10% w/v benzoyl peroxide formulations; settings: 10% w/v benzoyl peroxide plus antioxidant
# Procedure: For benzoyl peroxide stability studies in glycerol, benzoyl peroxide was prepared in a stock suspension of 20% w/v in glycerol and mixed 1:1 with 20% w/v suspensions or v/v solutions of antioxidants in glycerol. For pH experiments, the same stock suspension of benzoyl peroxide was mixed 1:1 with a 50% glycerol solution with 200 mM buffering agent (Citrate buffer pH 3.0, Tris Buffer pH 7.0, or Tris Buffer pH 9.0) for final 75% glycerol solution. The final volume of all reactions was 100 μL in GC headspace vials with 10% solution benzoyl peroxide (10 mg) and 10% antioxidant or 100 mM buffering agent. Vials were immediately crimp sealed for incubation. For analysis, 4.9 mL of DMSO was added to make up the final volume to approximate 5 mL, crimp sealed, and gently vortexed to mix.
# Benzene standard was diluted in DMSO for an 11-point calibration ranging from 10 ng/vial to 100 μg/vial. The coefficient of determination R^2 were greater than 0.999. Five (5) mL of DMSO was used for negative control samples.
# as §1, with “benzene. Lower limit of detection (LLOD) was 10 ng (equivalent to 0.02 ppm in hand benzoyl peroxide products) and LLOQ was 25 μg. The measurement uncertainty was determined to be 20%.” for “benzene.”
# (§2) 10% w/v benzoyl peroxide formulations were prepared. Various antioxidants were added to the formulations (10% w/v butylated hydroxytoluene (BHT), 10% w/v vitamin E acetate, or 5% w/v tert-butyl hydroquinone (TBHQ)+5% w/v BHT) to test whether these antioxidants could prevent or reduce formation of benzene under certain conditions. The various formulations were incubated at either 37° C., for up to two weeks or at 50° C., for up to two weeks. Benzene levels in each formulation were tested at various time points according to the protocols described in Example 1.
# [3] = Effect of antioxidants added to FDA-approved benzoyl peroxide drug products on benzene levels; settings: antioxidant added to drug product, 50° C. for 2 days
# Procedure: as §1
# [4] = Effect of solvents on benzene levels in 10% w/v benzoyl peroxide formulations; settings: 10% benzoyl peroxide, 37° C. for 10 days, compared to formulations containing glycerol or NMP
# Procedure: as §1
# as §2, with “solvents” for “antioxidants”, “(water, dimethylsulfoxide (DMSO), glycerol. N-methyl-2-pyrrolidone (NMP))” for “(10% w/v butylated hydroxytoluene (BHT), 10% w/v vitamin E acetate, or 5% w/v tert-butyl hydroquinone (TBHQ)+5% w/v BHT)”
SMILES,levels of benzene formed in the formulations ([2]; 37° C. for up to two weeks),levels of benzene formed in the formulations ([2]; 50° C. for up to two weeks),levels of benzene formed in two FDA-approved drug products with antioxidant [3],levels of benzene formed in the formulations [4],also measured
"O=C(OOC(=O)c1ccccc1)c1ccccc1 [crystalline benzoyl peroxide, benzoyl peroxide]",,,,,levels of benzene formed [1]: may be protected from forming benzene levels
CC(=O)Oc1c(C)c(C)c2c(c1C)CCC(C)(CCC[C@H](C)CCC[C@H](C)CCCC(C)C)O2 (stereo partly drawn) [vitamin E acetate],reduced the levels of benzene,reduced the levels of benzene,,,
"CC(C)(C)c1cc(O)ccc1O [TBHQ, tert-butyl hydroquinone]",,,reduce the degradation of benzoyl peroxide to benzene,,
"Cc1cc(C(C)(C)C)c(O)c(C(C)(C)C)c1 [BHT, butylated hydroxytoluene]",most dramatic reduction,most dramatic reduction,reduce the degradation of benzoyl peroxide to benzene,,
"C[S+](C)[O-] [DMSO, dimethylsulfoxide]",,,,"most dramatic reduction in, or complete prevention of, benzene levels",
O [water],,,,"most dramatic reduction in, or complete prevention of, benzene levels",
